Data set [1] concerns the target T1, Human SCD-1 (Homo sapiens, UniProt O00767).
T1 construct: adding 125 μg of microsomal fraction of HepG2 cells; host or cells: HepG2 human hepatocarcinoma cells (microsomal fraction)
T1 sequence (O00767 1-359): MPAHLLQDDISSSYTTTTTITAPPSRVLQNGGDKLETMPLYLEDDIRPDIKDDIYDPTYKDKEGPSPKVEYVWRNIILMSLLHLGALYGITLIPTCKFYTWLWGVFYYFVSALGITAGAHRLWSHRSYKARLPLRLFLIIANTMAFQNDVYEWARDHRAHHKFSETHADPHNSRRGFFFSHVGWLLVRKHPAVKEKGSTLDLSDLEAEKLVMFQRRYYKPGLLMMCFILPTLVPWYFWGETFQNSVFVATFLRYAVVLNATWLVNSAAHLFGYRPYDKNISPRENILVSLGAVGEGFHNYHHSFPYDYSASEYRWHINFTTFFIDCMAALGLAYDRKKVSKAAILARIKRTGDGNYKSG
The data set is described as follows: Human SCD-1 enzymatic activity from microsomes of HepG2 cells (conversion of stearic acid into oleic acid). Conditions: 10 μM compound, microsomal fraction of HepG2 cells, relative to carrier 0.1% DMSO; for inhibition at 10 µM: read-out: HSCD-1 (HEPG2) % inh. (10 μM). It is filed as biochemical. The method, then: In vitro: Human SCD-1 enzymatic activity from microsomes of HepG2 cells after treatment with inhibitory compounds (inhibition %).
Human hepatocarcinoma HepG2 cells (ATCC, HB-8065) are grown to confluence and then trypsinized. The cell pellet is taken up in 10 mM Tris buffer (pH 7.4), saccharose (250 mM) DTT (1 mM) and then the cells are lyzed by sonication. The microsomes are obtained after centrifugation at 10,000 g for 20 minutes a 4° C. followed by centrifugation of the supernatant at 100,000 g for 60 minutes a 4° C. The pellet is taken up in 10 mM Tris buffer (pH 7.4) saccharose (250 mM) at 4° C. and the microsomal proteins are assayed and stored at −196° C. (liquid nitrogen).
The enzymatic reaction measures the conversion of stearic acid (a C18:0 fatty acid) into oleic acid (C18:1 fatty acid) by SCD-1. The enzymatic reaction is started by adding 125 μg of microsomal fraction of HepG2 cells to tubes (total reaction volume of 500 μl) containing 62 μM of stearic acid (45 μM of stearic acid and 17 μM of [^14C] stearic acid) in a phosphate buffer at 100 mM (pH 7.16) with 7.2 mM of ATP, 0.54 mM of CoA, 6 mM of MgCl2, 0.8 mM of NADH and the inhibitory compound or the carrier (0.1% DMSO). The tubes are incubated for 20 minutes at 37° C. and the enzymatic reaction is then stopped by adding KOH (12%) and saponification for 30 minutes at 80° C. After acidification (3N HCl), the fatty acids are extracted twice with ethyl ether, evaporated under nitrogen before being taken up with a methanol/dichloromethane (3:1) mixture. The product of the reaction (C18:1) is separated from the substrate of the reaction (C18:0) by HPLC (Perkin Elmer, C18 reverse phase column) coupled to a on-line radioactivity detector (FlowOne). Enzymatic activity is calculated in picomoles of stearic acid converted into oleic acid per minute and per mg of protein. For each inhibitory compound, an inhibition % is determined relatively to the reference enzymatic activity (carrier 0.1% DMSO). Sterculic acid is the reference inhibitory compound (Gomez F. E., Bauman D. E., Ntambi J. M., Fox B. G. Effects of sterculic acid on stearoyl-CoA desaturase in differentiating […] adipocytes. Biochem Biophys Res Commun. 300 316-326 (2003)).

As a reminder, the melting point is the temperature, or range, at which the solid turns liquid. `Cn1c(=O)c(N2CCC(Oc3ccccc3C(F)(F)F)CC2)nn(-c2ccsc2)c1=O` [Example 82, 4-methyl-2-thiophen-3-yl-6-[4-(2-trifluoromethyl-phenoxy)-piperidin-1-yl]-2H-[1,2,4]triazine-3,5-dione] registered a melting point of 85 °C. Moreover, the inhibition at 10 µM in data set [1] is 100%.
The like results for `Cn1nc(N2CCC(Oc3cc(F)ccc3Cl)CC2)c(=O)n(C)c1=O` [Example 30, 6-[4-(2-chloro-5-fluoro-phenoxy)-piperidin-1-yl]-2,4-dimethyl-2H-[1,2,4]triazine-3,5-dione] were, in that order, 168 °C and 86%.
The molecule `Cn1c(=O)[nH]nc(N2CCN(C(=O)c3ccccc3C(F)(F)F)CC2)c1=O` [Example 4, 4-methyl-6-[4-(2-trifluoromethyl-benzoyl)-piperazin-1-yl]-2H-[1,2,4]triazine-3,5-dione] displayed a melting point of 235 °C. The inhibition at 10 µM in data set [1] was 77%.
The like results for `Cn1c(=O)[nH]nc(N2CCN(Cc3ccccc3C(F)(F)F)CC2)c1=O` [Example 64, 4-methyl-6-[4-(2-trifluoromethyl-benzyl)-piperazin-1-yl]-2H-[1,2,4]triazine-3,5-dione] were, in that order, 205 °C and 57%.
The like results for `COc1ccccc1-n1nc(N2CCC(Oc3ccccc3C(F)(F)F)CC2)c(=O)n(C)c1=O` [Example 84, 2-(2-methoxy-phenyl)-4-methyl-6-[4-(2-trifluoromethyl-phenoxy)-piperidin-1-yl]-2H-[1,2,4]triazine-3,5-dione] were, in that order, 128 °C and 53%.
`Cn1nc(N2CCN(Cc3ccccc3C(F)(F)F)CC2)c(=O)n(C)c1=O` [Example 55, 2,4-dimethyl-6-[4-(2-trifluoromethyl-benzyl)-piperazin-1-yl]-2H-[1,2,4]triazine-3,5-dione] returned a melting point of 92 °C. The inhibition at 10 µM in data set [1] worked out at 65%.
Molecule `Cn1nc(N2CCN(C(=O)c3ccccc3C(F)(F)F)CC2)c(=O)n(C)c1=O` [Example 5, 2,4-dimethyl-6-[4-(2-trifluoromethyl-benzoyl)-piperazin-1-yl]-2H-[1,2,4]triazine-3,5-dione] registered a melting point of 76 °C. The inhibition at 10 µM in data set [1] worked out at 43%.
The molecule `Cc1ccccc1OC1CCN(c2nn(C)c(=O)n(C)c2=O)CC1` [Example 31, 2,4-dimethyl-6-(4-o-tolyloxy-piperidin-1-yl)-2H-[1,2,4]triazine-3,5-dione] showed a melting point of 102 °C. Also, the inhibition at 10 µM in data set [1] stood at 73%.
Turning to `Cn1nc(N2CCC(Oc3ccccc3C(F)(F)F)CC2)c(=O)n(C)c1=O` [Example 11, 2,4-dimethyl-6-[4-(2-trifluoromethyl-phenoxy)-piperidin-1-yl]-2H-[1,2,4]triazine-3,5-dione], the inhibition at 10 µM in data set [1] is 92%.
As for `Cn1nc(N2CCC(Oc3ccccc3Cl)CC2)c(=O)n(C)c1=O` [Example 27, 6-[4-(2-chloro-phenoxy)-piperidin-1-yl]-2,4-dimethyl-2H-[1,2,4]triazine-3,5-dione], the inhibition at 10 µM in data set [1] was 82%.
`Cn1c(=O)c(N2CCC(Oc3ccccc3C(F)(F)F)CC2)nn(-c2ccc(F)cc2)c1=O` [Example 80, 2-(4-fluoro-phenyl)-4-methyl-6-[4-(2-trifluoromethyl-phenoxy)-piperidin-1-yl]-2H-[1,2,4]triazine-3,5-dione] yielded a melting point of 111 °C. Besides, the inhibition at 10 µM in data set [1] stood at 87%.
Turning to `Cn1c(=O)c(N2CCN(C(=O)c3ccccc3C(F)(F)F)CC2)nn(CCCC(F)(F)F)c1=O` [Example 3, 4-methyl-2-(4,4,4-trifluoro-butyl)-6-[4-(2-trifluoromethyl-benzoyl)-piperazin-1-yl]-2H-[1,2,4]triazine-3,5-dione], the inhibition at 10 µM in data set [1] amounted to 90%.
The molecule `O=C(c1ccccc1C(F)(F)F)N1CCN(c2c[nH]c(=O)[nH]c2=O)CC1` [Example 6, 5-[4-(2-trifluoromethyl-benzoyl)-piperazin-1-yl]-1H-pyrimidine-2,4-dione] yielded a melting point of 285 °C. Further, the inhibition at 10 µM in data set [1] was found to be 73%.
Regarding `Cn1c(=O)c(N2CCC(Oc3ccccc3C(F)(F)F)CC2)nn(-c2cccnc2)c1=O` [Example 81, 4-methyl-2-pyridin-3-yl-6-[4-(2-trifluoromethyl-phenoxy)-piperidin-1-yl]-2H-[1,2,4]triazine-3,5-dione], the melting point came to 63 °C. Moreover, the inhibition at 10 µM in data set [1] amounted to 98%.
On to `Cn1c(=O)[nH]nc(N2CCN(C(=O)c3cc(F)ccc3C(F)(F)F)CC2)c1=O` [Example 69, 6-[4-(5-fluoro-2-trifluoromethyl-benzoyl)-piperazin-1-yl]-4-methyl-2H-[1,2,4]triazine-3,5-dione], for which, in data set [1], the inhibition at 10 µM was found to be 84%.
On the same count and under the same terms, the result for `Cn1c(=O)c(N2CCC(Oc3ccccc3C(F)(F)F)CC2)nn(CCc2c[nH]c3ccccc23)c1=O` [Example 16, 2-[2-(1H-Indol-3-yl)-ethyl]-4-methyl-6-[4-(2-trifluoromethyl-phenoxy)-piperidin-1-yl]-2H-[1,2,4]triazine-3,5-dione] reads 57%.
Same read-out and setting: the result for `CC(C)CCn1nc(N2CCN(C(=O)c3cc(F)ccc3C(F)(F)F)CC2)c(=O)n(C)c1=O` [Example 48, 6-[4-(5-fluoro-2-trifluoromethyl-benzoyl)-piperazin-1-yl]-4-methyl-2-(3-methyl-butyl)-2H-[1,2,4]triazine-3,5-dione] reads 64%; that for `Cn1c(=O)c(N2CCC(Oc3ccccc3Cl)CC2)nn(CCCC(F)(F)F)c1=O` [Example 25, 6-[4-(2-chloro-phenoxy)-piperidin-1-yl]-4-methyl-2-(4,4,4-trifluoro-butyl)-2H-[1,2,4]triazine-3,5-dione], 70%.
For `Cn1c(=O)c(N2CCN(C(=O)c3cc(F)ccc3C(F)(F)F)CC2)nn(CCCC(F)(F)F)c1=O` [Example 47, 6-[4-(5-fluoro-2-trifluoromethyl-benzoyl)-piperazin-1-yl]-4-methyl-2-(4,4,4-trifluoro-butyl)-2H-[1,2,4]triazine-3,5-dione], the inhibition at 10 µM in data set [1] was 84%.
Still for that read-out and setting: the result for `Cn1c(=O)[nH]nc(N2CCN(C(=O)c3ccc(F)cc3C(F)(F)F)CC2)c1=O` [Example 70, 6-[4-(4-fluoro-2-trifluoromethyl-benzoyl)-piperazin-1-yl]-4-methyl-2H-[1,2,4]triazine-3,5-dione] reads 66%.
On to `CCCCCCCCC1=C(CCCCCCCC(=O)O)C1` [Sterculic acid, reference compound], for which the “HSCD-1 (HEPG2) % inh. (10 μM)” value in data set [1] is listed as 100%.
Turning to `Cn1c(=O)c(N2CCN(Cc3ccccc3C(F)(F)F)CC2)nn(CCCC(F)(F)F)c1=O` [Example 57, 4-methyl-2-(4,4,4-trifluoro-butyl)-6-[4-(2-trifluoromethyl-benzyl)-piperazin-1-yl]-2H-[1,2,4]triazine-3,5-dione], in data set [1], the inhibition at 10 µM came to 71%.
With `CCCCCCCn1c(=O)c(N2CCC(Oc3ccccc3C(F)(F)F)CC2)nn(CCC#N)c1=O` [Example 12, 3-{4-heptyl-3,5-dioxo-6-[4-(2-trifluoromethyl-phenoxy)-piperidin-1-yl]-4,5-dihydro-3H-[1,2,4]triazin-2-yl}-propionitrile], the inhibition at 10 µM in data set [1] was determined as 71%.
In the case of `CCCCCCCn1c(=O)c(N2CCN(C(=O)c3ccccc3C(F)(F)F)CC2)nn(C)c1=O` [Example 1, 4-heptyl-2-methyl-6-[4-(2-trifluoromethyl-benzoyl)-piperazin-1-yl]-2H-[1,2,4]triazine-3,5-dione], the inhibition at 10 µM in data set [1] came to 11%.
For `CCOCCn1nc(N2CCC(Oc3ccccc3C(F)(F)F)CC2)c(=O)n(C)c1=O` [Example 15, 2-(2-ethoxy-ethyl)-4-methyl-6-[4-(2-trifluoromethyl-phenoxy)-piperidin-1-yl]-2H-[1,2,4]triazine-3,5-dione], the inhibition at 10 µM in data set [1] was 74%.

Source of the values: patent US8618287B2, “Derivatives of triazines and uracils, their preparation and their application in human therapeutics” (Pierre Fabre Medicament, priority 2008, dated 2013).
